Results: US20100069246A1, “Herbicide Combination Comprising Dimethoxytriazinyl-Substituted Difluoromethanesulfonylanilides” (BAYER CROPSCIENCE AG, priority 2008, published 2010)

Legend:
Experiment in all cases: Post-emergence action, greenhouse pot test, visual scoring
Type in all cases: in vivo
[1] = test system: Echinochloa crus-galli (ECHCG); conditions: 21 DAT
Procedure: (§1) Seeds or rhizome pieces of mono- and dicotyledonous harmful and useful plants were placed in peat pots (diameter 4 cm) filled with sandy loam and then covered with soil. The pots were kept in a greenhouse under optimum conditions. In addition, harmful plants encountered in paddy rice cultivation were cultivated in pots with a water level 2 cm above the soil surface.
(§2) About three weeks after the start of the cultivation, the test plants were treated at the 2- to 3-leaf stage. The herbicides, formulated as powder or liquid concentrates, were, either alone or in the combinations according to the invention, sprayed in various dosages on to the green parts of the plants using an application rate of 600 l of water/ha (converted). For further cultivation of the plants, the pots were then again kept under optimum conditions in a greenhouse.
(§3) The visual scoring of the herbicidal effects was carried out in intervals up to 21 days after the treatment. Scoring was carried out in percent in comparison to the untreated control plants. 0%=no herbicidal activity, 100%=complete herbicidal activity=complete kill.
(§4) The percentages from the treatments with the herbicides alone (=individual application) and with the combinations according to the invention (=mixtures) were employed to calculate interactions using the method of Colby. When the observed efficacies of the mixtures exceed the formal sum of the values of the tests with individual applications, they also exceed the expected value according to Colby, which is calculated using the formula below (cf. S. R. Colby; in Weeds 15 (1967) pp. 20 to 22):
(§5) Here: • A, B=activity of components A and B in percent at a dosage of a and b g of ai/ha (=gramm of active substance per hectare), respectively. • E=expected value in % at a dosage of a+b g of ai/ha.

[2] = test system: Matricaria inodora (MATIN)
Procedure: as §1, §2, §3, §4, §5

[3] = test system: Oryza sativa (ORYSA)
Procedure: as §1, §2, §3, §4, §5

[4] = test system: Zea mays (ZEAMX)
Procedure: as §1, §2, §3, §4, §5

[5] = test system: Fallopia (ex Polygonum) convolvulus (POLCO)
Procedure: as §1, §2, §3, §4, §5

[6] = test system: Abuthilon theophrasti (ABUTH)
Procedure: as §1, §2, §3, §4, §5

[7] = test system: Pharbitis purpurea (PHBPU)
Procedure: as §1, §2, §3, §4, §5

[8] = test system: Setaria viridis (SETVI)
Procedure: as §1, §2, §3, §4, §5

[9] = test system: Alopecurus myosuroides (ALOMY)
Procedure: as §1, §2, §3, §4, §5

[10] = test system: Amaranthus retroflexus (AMARE)
Procedure: as §1, §2, §3, §4, §5

[11] = test system: Triticum aestivum (TRZAS); conditions: 10 DAT
Procedure: as §1, §2, §3, §4, §5

[12] = test system: Veronica persica (VERPE)
Procedure: as §1, §2, §3, §4, §5

[13] = test system: Avena fatua (AVEFA)
Procedure: as §1, §2, §3, §4, §5

[14] = test system: Lolium multiflorum (LOLMU)
Procedure: as §1, §2, §3, §4, §5

[15] = test system: Viola tricolor (VIOTR)
Procedure: as §1, §2, §3, §4, §5

[16] = test system: Cyperus esculentus (CYPES); conditions: 21 DAT
Procedure: as §1, §2, §3, §4, §5

[17] = 21 DAT, component A 12 g of ai/ha
[18] = 10 DAT, component A 4 g of ai/ha
[19] = 21 DAT, component A 4 g of ai/ha
[20] = 10 DAT, component B 300 g of ai/ha
[21] = 10 DAT, component B 900 g of ai/ha
[22] = 21 DAT, component B 300 g of ai/ha
[23] = 21 DAT, component B 900 g of ai/ha
[24] = 21 DAT, component B 400 g of ai/ha
[25] = 21 DAT, component B 1200 g of ai/ha
[26] = 10 DAT, component B 400 g of ai/ha
[27] = 10 DAT, component B 1200 g of ai/ha

COc1nc(OC)nc(C(=O)c2cccc(F)c2N(C)S(=O)(=O)C(F)F)n1 [A-1]
% activity found ([1]; component A 4 g of ai/ha): 85%
% activity found [2, 17]: 60%
% activity found [3, 17]: 10%
% activity found [4, 18]: 0%
% activity found [4, 17]: 0%
% activity found [5, 17]: 70%
% activity found [6, 19]: 85%
% activity found [6, 17]: 85%
% activity found ([7]; 10 DAT, component A 12 g of ai/ha): 60%
% activity found [7, 19]: 60%
% activity found [8, 18]: 50%
% activity found [9, 18]: 40%
% activity found [9, 19]: 40%
% activity found [10, 19]: 70%
% activity found ([11]; component A 4 g of ai/ha): 0%

CC(C)(NC(=O)NCc1ccccc1Cl)c1ccccc1 [B1-1, N-[(2-chlorophenyl)methyl]-N′-(1-methyl-1-phenylethyl)urea]
% activity found ([1]; component B 300 g of ai/ha): 0%
% activity found [12, 20]: 0%
% activity found [12, 21]: 0%
% activity found [12, 22]: 0%
% activity found [12, 23]: 0%
% activity found [2, 20]: 20%
% activity found [2, 22]: 0%
% activity found [2, 23]: 0%
% activity found [13, 20]: 0%
% activity found [13, 21]: 0%
% activity found [3, 20]: 0%
% activity found [4, 20]: 0%
% activity found [4, 21]: 0%
% activity found [4, 22]: 5%
% activity found [4, 23]: 0%
% activity found [14, 23]: 0%
% activity found [5, 22]: 0%
% activity found [5, 23]: 0%
% activity found [6, 20]: 0%
% activity found [6, 22]: 0%
% activity found [6, 23]: 0%
% activity found [7, 20]: 0%
% activity found [7, 21]: 0%
% activity found [7, 22]: 0%
% activity found [7, 23]: 30%
% activity found [8, 20]: 0%
% activity found [8, 21]: 0%
% activity found [8, 22]: 0%
% activity found [8, 23]: 0%
% activity found [15, 23]: 10%
% activity found [9, 20]: 0%
% activity found [9, 21]: 0%
% activity found [9, 22]: 0%
% activity found [9, 23]: 0%
% activity found [10, 22]: 0%
% activity found [10, 23]: 20%
% activity found ([11]; component B 900 g of ai/ha): 5%

Cc1ccc(NC(=O)NC(C)(C)c2ccccc2)cc1 [B2-4, N-(4-methylphenyl)-N′-(1-methyl-1-phenylethyl)urea]
% activity found [12, 24]: 0%
% activity found [12, 25]: 0%
% activity found ([16]; component B 400 g of ai/ha): 0%
% activity found ([16]; component B 1200 g of ai/ha): 0%
% activity found [2, 26]: 0%
% activity found [2, 27]: 0%
% activity found [2, 24]: 0%
% activity found [2, 25]: 20%
% activity found [13, 24]: 0%
% activity found [13, 25]: 0%
% activity found [3, 25]: 10%
% activity found [4, 26]: 0%
% activity found [4, 27]: 10%
% activity found [14, 26]: 0%
% activity found [14, 27]: 0%
% activity found [14, 24]: 0%
% activity found [14, 25]: 0%
% activity found [5, 26]: 0%
% activity found [5, 27]: 0%
% activity found [5, 24]: 0%
% activity found [5, 25]: 0%
% activity found [6, 26]: 0%
% activity found [6, 27]: 0%
% activity found [6, 24]: 0%
% activity found [6, 25]: 0%
% activity found [7, 26]: 0%
% activity found [7, 27]: 0%
% activity found [7, 24]: 0%
% activity found [7, 25]: 0%
% activity found [8, 25]: 40%
% activity found [15, 26]: 0%
% activity found [15, 27]: 0%
% activity found [15, 24]: 0%
% activity found [15, 25]: 0%
% activity found [9, 26]: 0%
% activity found [9, 24]: 0%
% activity found [9, 25]: 0%
% activity found [10, 27]: 0%
% activity found [10, 24]: 0%
% activity found [10, 25]: 0%
% activity found ([11]; component B 400 g of ai/ha): 0%
% activity found ([11]; component B 1200 g of ai/ha): 0%
